Results published in PMC8956739, “A synthetic lipopeptide targeting top-priority multidrug-resistant Gram-negative pathogens” (Nature Communications, 2022).
In brackets after ≈: the same amount, converted by molar mass. Several values for one entry are separate records, joined by “and”; a condition that tells them apart may be missing. Equal entries are not always repeated. Where two headings read alike, the source gives them in different places. Residues, ends and D or L forms follow the SMILES beside them.

What was measured:
A. baumannii FADDI-AB051 [1] = format: cell-based, Acinetobacter baumannii; conditions: FADDI-AB051
Procedure, shortened: (§1)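 Read-out is the minimum inhibitory concentration, obtained by serially diluting compound in cation-adjusted Mueller–Hinton medium and exposing each isolate in microdilution format.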

A. baumannii FADDI-AB161 = format: cell-based, Acinetobacter baumannii; conditions: FADDI-AB161
Procedure, shortened: as §1

[2] = system: K. pneumoniae FADDI-KP027; format: cell-based, Klebsiella pneumoniae; conditions: FADDI-KP027
Procedure, shortened: as §1

K. pneumoniae Kp MKP103 = format: cell-based, Klebsiella pneumoniae; conditions: polymyxin-resistant
Procedure, shortened: as §1

[3] = system: K. pneumoniae FADDI-KP132 (mcr-1 positive); assay: Neutropenic mouse pneumonia model, polymyxin-resistant isolate; format: in vivo; conditions: for Tukey HSD diff, Pre-treatment minus treated group (Log10 CFU/lung) / Tukey HSD diff, Vehicle minus treated group (Log10 CFU/lung): Fig. f; for Log10 CFU/lung: Figure 3f, individual mice
Procedure: (§2) The experimental methodology for the neutropenic mouse lung infection model was previously described in detail. Briefly, Swiss mice (female, 7-week-old, 22–28 g) were rendered neutropenic by intraperitoneal administration of cyclophosphamide, 4 days (150 mg/kg) and 1 day (100 mg/kg) prior to inoculation. Lung infection was established by the administration of 25 µL of early log-phase bacterial suspension (polymyxin-susceptible or resistant isolate, 4 × 10^7 CFU/mL), directly into the lungs via the trachea using a MicroSprayer™ device. Lipopeptide solutions were prepared in sterile saline. At 2 h after inoculation, mice (n = 3 or 4) were administered lipopeptide (45–240 mg/kg/d free base) or control (sterile saline) via an intraperitoneal or subcutaneous bolus injection in three divided doses every 8 h. At 0 or 24 h after the administration of lipopeptide solution or saline (control), animals were euthanized and lungs were collected and homogenized under sterile conditions. Homogenate was filtered and the filtrate was collected, serially diluted in sterile saline, and spread on nutrient agar plates. Agar plates were incubated at 37 °C overnight for bacterial colony counting and the bacterial load of the lung (log10 CFU/lung) in each mouse was calculated. In vivo efficacy was calculated as the difference of the log10 CFU/lung values between the treated mice at 24 h and the pre-treatment (control) at 0 h (Δlog10 CFU/lung = log10 [treated] CFU/lung − log10 [pre-treatment] CFU/lung).

[4] = system: P. aeruginosa FADDI-PA102; assay: as above; format: in vivo; conditions: for Tukey HSD diff, Pre-treatment minus treated group (Log10 CFU/lung) / Tukey HSD diff, Vehicle minus treated group (Log10 CFU/lung): Fig. d; for Log10 CFU/lung: Figure 3d, individual mice
Procedure: as §2

A. baumannii FADDI-AB156 = assay: as above; format: in vivo; conditions: for Tukey HSD diff, Pre-treatment minus treated group (Log10 CFU/lung) / Tukey HSD diff, Vehicle minus treated group (Log10 CFU/lung): Fig. e; for Log10 CFU/lung: Figure 3e, individual mice
Procedure: as §2

[5] = in vivo
Procedure: (§3) The plasma pharmacokinetic profiles of F365 and polymyxin B were assessed in Swiss mice (female, 7-week-old, 22–28 g) after a single intraperitoneal dose (5 mg/kg, n = 3). Blood samples were collected at various time points over 24 h post dosing for analysis. The plasma pharmacokinetic profiles of F365 (n = 5) and polymyxin B (1 mg/kg, n = 11) in Sprague-Dawley rats (male, 10-week-old, 280 to 330 g) were assessed after intravenous administration (1 min) of F365 and polymyxin B via an indwelling jugular vein cannula. Blood samples (~0.3 mL) were collected via an indwelling carotid artery cannula at various time points over 24 h post dosing. Urine samples were collected at 4 °C using a metabolic cage during the period between 0 and 24 h post dosing. Concentrations of F365 and polymyxin B in plasma and urine samples were determined using LC-MS/MS and pharmacokinetic analysis was conducted using WinNonlin (Pharsight Corp., Mountain View, CA). The ELF pharmacokinetic profiles of F365 and polymyxin B was determined in neutropenic Swiss mice (female, 7-week-old, 22–28 g) after subcutaneous injection (40 mg/kg, n = 3). Bronchoalveolar lavage (BAL) samples were collected at various time points over 24 h post dosing from the cannulated trachea using Milli-Q water as BAL washing media. The average volume of ELF in mice was calculated by the ratio of urea concentrations in plasma and BAL samples. Concentrations of F365 and polymyxin B in plasma and BAL were analyzed by LC-MS/MS. Pharmacokinetic parameters were calculated using a non-compartment model with WinNonlin. For mouse, rat, and human plasma protein binding of F365 and polymyxin B, pooled plasma samples (n = 3) from each species were spiked with F365 or polymyxin B. The spiked plasma samples were subjected to ultrafiltration and the corresponding filtrates were analyzed by LC-MS/MS to determine the concentration of F365 and polymyxin B and the protein binding in each species.

[6] = Plasma pharmacokinetics in mice; format: in vivo, mouse
Procedure: as §3

[7] = system: K. pneumoniae FADDI-KP132; assay: MIC, polymyxin-resistant isolate; format: cell-based, Klebsiella pneumoniae; conditions: mcr-1 positive
Procedure: MICs were determined in cation-adjusted Mueller–Hinton broth (CaMHB) by the broth micro-dilution method against ATCC strains and clinical isolates. MICs in the presence of Survanta® were determined as described above against P. aeruginosa ATCC 27853. In the 100 μL of fresh CaMHB containing polymyxins, 10% Survanta® (v/v, 2.5 mg/mL phospholipids) was added. MICs in the presence and absence of Survanta® were compared to determine the effect of binding to lung surfactant on the antibacterial activity of polymyxins.

A. baumannii FADDI-AB051 [8] = assay: Neutropenic mouse pneumonia model; format: in vivo; conditions: for Tukey HSD diff, Pre-treatment minus treated group (Log10 CFU/lung) / Tukey HSD diff, Vehicle minus treated group (Log10 CFU/lung): Fig. b; for Log10 CFU/lung: Figure 3b, individual mice
Procedure: as §2

[9] = system: P. aeruginosa FADDI-PA038; assay: Neutropenic mouse pneumonia model; format: in vivo; conditions: for Tukey HSD diff, Pre-treatment minus treated group (Log10 CFU/lung) / Tukey HSD diff, Vehicle minus treated group (Log10 CFU/lung): Fig. a; for Log10 CFU/lung: Figure 3a, individual mice
Procedure: as §2

[10] = system: K. pneumoniae FADDI-KP065; assay: Neutropenic mouse pneumonia model; format: in vivo; conditions: for Tukey HSD diff, Pre-treatment minus treated group (Log10 CFU/lung) / Tukey HSD diff, Vehicle minus treated group (Log10 CFU/lung): Fig. c; for Log10 CFU/lung: Figure 3c, individual mice
Procedure: as §2

[11] = 45 mg/kg/d IP in three divided doses every 8 h
[12] = 90 mg/kg/d IP in three divided doses every 8 h

## CC[C@@H]1NC(=O)[C@@H](CC(C)C)NC(=O)[C@H](CCN)NC(=O)[C@@H](NC(=O)[C@H](CN)NC(=O)[C@@H](NC(=O)[C@H](CCN)NC(=O)c2ccc(Cl)cc2Cl)[C@@H](C)O)CCNC(=O)[C@H]([C@@H](C)O)NC(=O)[C@H](CCN)NC(=O)[C@H](CCN)NC1=O [Lipopeptide F365] (HELM PEPTIDE1{[O=C(c1ccc(Cl)cc1Cl)[*:2]].[Dab].T.[NC[C@H](N[*:1])C(=O)[*:2]].[Dab].[Dab].[dL].[Abu].[Dab].[Dab].T}$PEPTIDE1,PEPTIDE1,5:R3-11:R2$$$V2.0)
A. baumannii FADDI-AB051 [1]
  MIC A. baumannii FADDI-AB051: 0.5 µg/mL (≈ 0.431 µM)
A. baumannii FADDI-AB161
  MIC A. baumannii FADDI-AB161: 1 µg/mL (≈ 0.862 µM)
[2]
  MIC K. pneumoniae FADDI-KP027: > 32 µg/mL
K. pneumoniae Kp MKP103
  MIC K. pneumoniae Kp MKP103: 8 µg/mL (≈ 6.9 µM)
[3]; 240 mg/kg/d subcutaneously, 24 h, maximum over the polymyxin-resistant isolates
  reduction in CFU/lung: up to 4.65 log10 CFU/lung
[3]; 120mg/kg/d
  Tukey HSD diff, Pre-treatment minus treated group (Log10 CFU/lung): 1.795
  Tukey HSD diff, Vehicle minus treated group (Log10 CFU/lung): 4.6875
  Log10 CFU/lung: 4.02 Log10 CFU/lung and 5.39 Log10 CFU/lung and 2.64 Log10 CFU/lung and 2.94 Log10 CFU/lung
[3]; 240mg/kg/d
  Tukey HSD diff, Pre-treatment minus treated group (Log10 CFU/lung): 4.6475
  Tukey HSD diff, Vehicle minus treated group (Log10 CFU/lung): 7.54
  Log10 CFU/lung: 0.00 Log10 CFU/lung (2×) and 1.64 Log10 CFU/lung and 1.94 Log10 CFU/lung
[4]; 120mg/kg/d
  Tukey HSD diff, Pre-treatment minus treated group (Log10 CFU/lung): 0.69
  Tukey HSD diff, Vehicle minus treated group (Log10 CFU/lung): 1.074
  Log10 CFU/lung: 6.56 Log10 CFU/lung and 6.03 Log10 CFU/lung and 7.00 Log10 CFU/lung
[4]; 240mg/kg/d
  Tukey HSD diff, Pre-treatment minus treated group (Log10 CFU/lung): 3.307
  Tukey HSD diff, Vehicle minus treated group (Log10 CFU/lung): 3.691
  Log10 CFU/lung: 4.07 Log10 CFU/lung and 3.82 Log10 CFU/lung and 3.85 Log10 CFU/lung
A. baumannii FADDI-AB156; 120mg/kg/d
  Tukey HSD diff, Pre-treatment minus treated group (Log10 CFU/lung): 2.4325
  Tukey HSD diff, Vehicle minus treated group (Log10 CFU/lung): 3.826
  Log10 CFU/lung: 4.13 Log10 CFU/lung and 5.08 Log10 CFU/lung and 3.12 Log10 CFU/lung
A. baumannii FADDI-AB156; 240mg/kg/d
  Tukey HSD diff, Pre-treatment minus treated group (Log10 CFU/lung): 4.209
  Tukey HSD diff, Vehicle minus treated group (Log10 CFU/lung): 5.603
  Log10 CFU/lung: 1.94 Log10 CFU/lung and 2.42 Log10 CFU/lung and 2.64 Log10 CFU/lung
[5]; mouse, sc, 40 mg/kg
  AUC(0-inf): 86200 ng·h/mL
  Cmax in ELF relative to polymyxin B: 3 fold
  Free AUC(0-∞) in ELF (estimated fAUCELF): 86200 ng·h/mL
  Total CL: 7.67 mL/min/kg
  half-life: 203 min
[5]; rat
  urinary recovery relative to polymyxin B: > 4 fold
[5]; rat, iv, 1 mg/kg
  AUC(0-inf): 2400 ng·h/mL
  clearance: 7.67 mL/min/kg
  half-life: 54.6 min
[6]; 5 mg/kg IP, 0.28 h
  Plasma concentration, single mouse: 6.79
[6]; mouse, in vivo, ip, 5 mg/kg
  AUC(0-inf): 7920 ng·h/mL
  half-life: 18 min
[7]
  MIC K. pneumoniae FADDI-KP132: 8 µg/mL (≈ 6.9 µM)
A. baumannii FADDI-AB051 [8]; [11]
  bacterial killing in lung at 24 h vs pre-treatment inoculum: did not show any significant killing
A. baumannii FADDI-AB051 [8]; [12]
  bacterial killing in lung at 24 h: bacterial killing
A. baumannii FADDI-AB051 [8]; 45mg/kg/d
  Tukey HSD diff, Pre-treatment minus treated group (Log10 CFU/lung): -1.2425
  Tukey HSD diff, Vehicle minus treated group (Log10 CFU/lung): 0.7467
  Log10 CFU/lung: 7.89 Log10 CFU/lung and 8.25 Log10 CFU/lung and 7.87 Log10 CFU/lung and 7.93 Log10 CFU/lung
A. baumannii FADDI-AB051 [8]; 90mg/kg/d
  Tukey HSD diff, Pre-treatment minus treated group (Log10 CFU/lung): 2.8025
  Tukey HSD diff, Vehicle minus treated group (Log10 CFU/lung): 4.792
  Log10 CFU/lung: 3.25 Log10 CFU/lung and 3.88 Log10 CFU/lung and 6.08 Log10 CFU/lung and 2.55 Log10 CFU/lung
[9]; [11]
  bacterial killing in lung at 24 h vs pre-treatment inoculum: did not show any significant killing
[9]; [12]
  bacterial killing in lung at 24 h: bacterial killing
[9]; 45mg/kg/d
  Tukey HSD diff, Pre-treatment minus treated group (Log10 CFU/lung): -0.4375
  Tukey HSD diff, Vehicle minus treated group (Log10 CFU/lung): 2.481
  Log10 CFU/lung: 7.09 Log10 CFU/lung and 6.80 Log10 CFU/lung and 6.82 Log10 CFU/lung and 6.79 Log10 CFU/lung
[9]; 90mg/kg/d
  Tukey HSD diff, Pre-treatment minus treated group (Log10 CFU/lung): 1.005
  Tukey HSD diff, Vehicle minus treated group (Log10 CFU/lung): 3.9235
  Log10 CFU/lung: 5.12 Log10 CFU/lung and 5.34 Log10 CFU/lung and 5.83 Log10 CFU/lung and 5.44 Log10 CFU/lung
[10]; [11]
  bacterial killing in lung at 24 h vs pre-treatment inoculum: did not show any significant killing
[10]; [12]
  bacterial killing in lung at 24 h: bacterial killing
[10]; 45mg/kg/d
  Tukey HSD diff, Pre-treatment minus treated group (Log10 CFU/lung): 0.265
  Tukey HSD diff, Vehicle minus treated group (Log10 CFU/lung): 2.146
  Log10 CFU/lung: 4.76 Log10 CFU/lung and 7.31 Log10 CFU/lung and 6.40 Log10 CFU/lung and 7.13 Log10 CFU/lung
[10]; 90mg/kg/d
  Tukey HSD diff, Pre-treatment minus treated group (Log10 CFU/lung): 2.6475
  Tukey HSD diff, Vehicle minus treated group (Log10 CFU/lung): 4.5285
  Log10 CFU/lung: 5.21 Log10 CFU/lung and 3.53 Log10 CFU/lung and 3.48 Log10 CFU/lung and 3.85 Log10 CFU/lung
